In patent EP4806435A1, “DIHYDROCHROMENE-DERIVATIVE-CONTAINING THERAPEUTIC AGENT FOR CANCER” (Sumitomo Pharma Co., Ltd., priority 2023, dated 2025):
Where two headings read alike, the source gives them in different places.

Experiment: Phase 1 clinical trial: plasma pharmacokinetics
Assay type: in vivo, human
Settings: human, plasma, oral; for half-life: read-out: Effective T1/2 (converted); for AUC: tau = 24 hours
Description: Summary statistics based on preliminary data were obtained for the pharmacokinetics of Compound 1 in patients receiving once-daily doses ranging from 20 mg to 240 mg (Table 5). The mean plasma concentration-time curves of Compound 1 in the once-daily dose groups ranging from 20 mg to 240 mg are shown in Figure 11. In this study, one cycle consists of 28 days, and Cycle 1 Day 1 refers to Day 1 of the first cycle. […] Accumulation was observed after repeated administration. […] Based on these accumulation ratios, the half-life of Compound 1 was estimated to be approximately 4 days. Based on the currently available data, plasma concentrations are considered to have reached steady state by Day 15.
Summary statistics based on preliminary data were obtained for the pharmacokinetics of Compound 1 in patients in the 20 mg QD, 40 mg QD, 80 mg QD, 120 mg QD, 180 mg QD, 240 mg QD, 360 mg QD, and 480 mg daily (240 mg BID) dose groups (Table 6). The mean plasma concentration-time curves of Compound 1 in the 20 mg QD to 480 mg daily (240 mg BID) dose groups are shown in Figure 12 (in Figure 12, Compound 1 is denoted as "DSP-0390"). In this study, one cycle consists of 28 days, and Cycle 1 Day 1 refers to Day 1 of the first cycle. […] The median Tmax ranged from 2 to 8 hours. Accumulation was observed after repeated administration, and assuming linearity based on the observed accumulation ratios, the estimated elimination half-life was considered to be on the order of several days (approximately 1 to 6 days) (data cut-off: March 2024).

**Q.** For `CC1(C)Oc2cc(Cl)ccc2[C@@H]2OCC3(CCN(CCn4ccnc4)CC3)C[C@H]21` [Compound 1, (4'aR,10'bR)-8'-chloro-1-[2-(1H-imidazol-1-yl)ethyl]-5',5'-dimethyl-4'a,10'b-dihydro-2'H,4'H,5'H-spiro[piperidine-4,3'-pyrano[3,2-c][1]benzopyran] diphosphate], which Cmax (80 mg, Cycle 2 Day 1, 80 mg, QD, cut-off April 2023, read-out: Cmax (median)) is on record?
**A.** 61 ng/mL

**Q.** What about the Tmax (80 mg, Cycle 2 Day 1, 80 mg, QD, cut-off April 2023, read-out: Tmax (mean)) of the same compound?
**A.** 8 h

**Q.** What about the Tmax (80 mg, Cycle 2 Day 1, 80 mg, QD, cut-off April 2023, read-out: Tmax (median)) of the same compound?
**A.** 8 h

**Q.** What about the half-life (120 mg, 120 mg QD, cut-off March 2024) of the same compound?
**A.** 67.2 h

**Q.** And the Cmax (120 mg, Cycle 1, Day 1, 120 mg QD, cut-off March 2024, read-out: Cmax)?
**A.** 44.2 ng/mL

**Q.** What about the Tmax (120 mg, Cycle 1, Day 1, 120 mg QD, cut-off March 2024, read-out: Tmax [a] median value) of the same compound?
**A.** 4 h

**Q.** And the AUC (120 mg, Cycle 1, Day 1, 120 mg QD, cut-off March 2024, read-out: AUCtau [b])?
**A.** 577 ng·h/mL

**Q.** And the AUC(0-t) (120 mg, Cycle 1 Day 1, 120 mg, QD, cut-off April 2023, read-out: AUC0-24 (geometric mean))?
**A.** 544 ng·h/mL

**Q.** What about the AUC(0-t) (120 mg, Cycle 1 Day 1, 120 mg, QD, cut-off April 2023, read-out: AUC0-24 (mean)) of the same compound?
**A.** 583 ng·h/mL

**Q.** And the AUC(0-t) (120 mg, Cycle 1 Day 1, 120 mg, QD, cut-off April 2023, read-out: AUC0-24 (median))?
**A.** 605 ng·h/mL

**Q.** What about the Cmax (120 mg, Cycle 1 Day 1, 120 mg, QD, cut-off April 2023, read-out: Cmax (geometric mean)) of the same compound?
**A.** 40 ng/mL

**Q.** And the Cmax (120 mg, Cycle 1 Day 1, 120 mg, QD, cut-off April 2023, read-out: Cmax (mean))?
**A.** 44 ng/mL

**Q.** What about the Cmax (120 mg, Cycle 1 Day 1, 120 mg, QD, cut-off April 2023, read-out: Cmax (median)) of the same compound?
**A.** 45 ng/mL

**Q.** What about the Tmax (120 mg, Cycle 1 Day 1, 120 mg, QD, cut-off April 2023, read-out: Tmax (mean)) of the same compound?
**A.** 4 h

**Q.** What about the Tmax (120 mg, Cycle 1 Day 1, 120 mg, QD, cut-off April 2023, read-out: Tmax (median)) of the same compound?
**A.** 4 h

**Q.** And the Cmax (120 mg, Cycle 2, Day 1, 120 mg QD, cut-off March 2024, read-out: Cmax,ss)?
**A.** 156 ng/mL

**Q.** What about the Tmax (120 mg, Cycle 2, Day 1, 120 mg QD, cut-off March 2024, read-out: Tmax,ss [a] median value) of the same compound?
**A.** 5 h

**Q.** What about the AUC (120 mg, Cycle 2, Day 1, 120 mg QD, cut-off March 2024, read-out: AUCtau,ss [b]) of the same compound?
**A.** 2610 ng·h/mL

**Q.** What about the AUC(0-t) (120 mg, Cycle 2 Day 1, 120 mg, QD, cut-off April 2023, read-out: AUC0-24 (geometric mean)) of the same compound?
**A.** 2420 ng·h/mL

**Q.** And the AUC(0-t) (120 mg, Cycle 2 Day 1, 120 mg, QD, cut-off April 2023, read-out: AUC0-24 (mean))?
**A.** 2630 ng·h/mL

**Q.** What about the AUC(0-t) (120 mg, Cycle 2 Day 1, 120 mg, QD, cut-off April 2023, read-out: AUC0-24 (median)) of the same compound?
**A.** 2330 ng·h/mL

**Q.** What about the Cmax (120 mg, Cycle 2 Day 1, 120 mg, QD, cut-off April 2023, read-out: Cmax (geometric mean)) of the same compound?
**A.** 140 ng/mL

**Q.** What about the Cmax (120 mg, Cycle 2 Day 1, 120 mg, QD, cut-off April 2023, read-out: Cmax (mean)) of the same compound?
**A.** 156 ng/mL

**Q.** What about the Cmax (120 mg, Cycle 2 Day 1, 120 mg, QD, cut-off April 2023, read-out: Cmax (median)) of the same compound?
**A.** 138 ng/mL

**Q.** What about the Tmax (120 mg, Cycle 2 Day 1, 120 mg, QD, cut-off April 2023, read-out: Tmax (mean)) of the same compound?
**A.** 6 h

**Q.** What about the Tmax (120 mg, Cycle 2 Day 1, 120 mg, QD, cut-off April 2023, read-out: Tmax (median)) of the same compound?
**A.** 5 h

**Q.** What about the half-life (180 mg, 180 mg QD, cut-off March 2024) of the same compound?
**A.** 50.4 h

**Q.** And the Cmax (180 mg, Cycle 1, Day 1, 180 mg QD, cut-off March 2024, read-out: Cmax)?
**A.** 114 ng/mL

**Q.** What about the Tmax (180 mg, Cycle 1, Day 1, 180 mg QD, cut-off March 2024, read-out: Tmax [a] median value) of the same compound?
**A.** 6 h

**Q.** And the AUC (180 mg, Cycle 1, Day 1, 180 mg QD, cut-off March 2024, read-out: AUCtau [b])?
**A.** 1370 ng·h/mL

**Q.** What about the AUC(0-t) (180 mg, Cycle 1 Day 1, 180 mg, QD, cut-off April 2023, read-out: AUC0-24 (geometric mean)) of the same compound?
**A.** 1060 ng·h/mL

**Q.** And the AUC(0-t) (180 mg, Cycle 1 Day 1, 180 mg, QD, cut-off April 2023, read-out: AUC0-24 (mean))?
**A.** 1420 ng·h/mL

**Q.** What about the AUC(0-t) (180 mg, Cycle 1 Day 1, 180 mg, QD, cut-off April 2023, read-out: AUC0-24 (median)) of the same compound?
**A.** 1840 ng·h/mL

**Q.** What about the Cmax (180 mg, Cycle 1 Day 1, 180 mg, QD, cut-off April 2023, read-out: Cmax (geometric mean)) of the same compound?
**A.** 73 ng/mL

**Q.** What about the Cmax (180 mg, Cycle 1 Day 1, 180 mg, QD, cut-off April 2023, read-out: Cmax (mean)) of the same compound?
**A.** 101 ng/mL

**Q.** What about the Cmax (180 mg, Cycle 1 Day 1, 180 mg, QD, cut-off April 2023, read-out: Cmax (median)) of the same compound?
**A.** 140 ng/mL

**Q.** What about the Tmax (180 mg, Cycle 1 Day 1, 180 mg, QD, cut-off April 2023, read-out: Tmax (mean)) of the same compound?
**A.** 11 h

**Q.** And the Tmax (180 mg, Cycle 1 Day 1, 180 mg, QD, cut-off April 2023, read-out: Tmax (median))?
**A.** 6 h

**Q.** What about the Cmax (180 mg, Cycle 2, Day 1, 180 mg QD, cut-off March 2024, read-out: Cmax,ss) of the same compound?
**A.** 215 ng/mL

**Q.** And the Tmax (180 mg, Cycle 2, Day 1, 180 mg QD, cut-off March 2024, read-out: Tmax,ss [a] median value)?
**A.** 6 h

**Q.** What about the AUC (180 mg, Cycle 2, Day 1, 180 mg QD, n=3, cut-off March 2024, read-out: AUCtau,ss [b]) of the same compound?
**A.** 4860 ng·h/mL

**Q.** What about the AUC(0-t) (180 mg, Cycle 2 Day 1, 180 mg, QD, N=1, cut-off April 2023, read-out: AUC0-24 (geometric mean)) of the same compound?
**A.** 7260 ng·h/mL

**Q.** What about the AUC(0-t) (180 mg, Cycle 2 Day 1, 180 mg, QD, N=1, cut-off April 2023, read-out: AUC0-24 (mean)) of the same compound?
**A.** 7260 ng·h/mL

**Q.** What about the AUC(0-t) (180 mg, Cycle 2 Day 1, 180 mg, QD, N=1, cut-off April 2023, read-out: AUC0-24 (median)) of the same compound?
**A.** 7260 ng·h/mL

**Q.** What about the Cmax (180 mg, Cycle 2 Day 1, 180 mg, QD, cut-off April 2023, read-out: Cmax (geometric mean)) of the same compound?
**A.** 281 ng/mL

**Q.** And the Cmax (180 mg, Cycle 2 Day 1, 180 mg, QD, cut-off April 2023, read-out: Cmax (mean))?
**A.** 287 ng/mL

**Q.** What about the Cmax (180 mg, Cycle 2 Day 1, 180 mg, QD, cut-off April 2023, read-out: Cmax (median)) of the same compound?
**A.** 287 ng/mL

**Q.** What about the Tmax (180 mg, Cycle 2 Day 1, 180 mg, QD, cut-off April 2023, read-out: Tmax (mean)) of the same compound?
**A.** 7 h
